Laboratory results from PubChem BioAssay AID1960 (Broad Institute, 2009).
Results filed as inconclusive are left out. Calls of active or inactive are those of the source. How the calls were made is not given here.

molecular target: Zinc finger protein mex-5 (Caenorhabditis elegans) (UniProt Q9XUB2); assay: potency of MEX-5 RNA-binding blockers – biochemical, fluorescence polarization, dose response (AID 1960); conditions: MEX-5/FITC-TCR2 RNA fluorescence polarization, 1 h
Sequence (Q9XUB2 whole entry, looked up): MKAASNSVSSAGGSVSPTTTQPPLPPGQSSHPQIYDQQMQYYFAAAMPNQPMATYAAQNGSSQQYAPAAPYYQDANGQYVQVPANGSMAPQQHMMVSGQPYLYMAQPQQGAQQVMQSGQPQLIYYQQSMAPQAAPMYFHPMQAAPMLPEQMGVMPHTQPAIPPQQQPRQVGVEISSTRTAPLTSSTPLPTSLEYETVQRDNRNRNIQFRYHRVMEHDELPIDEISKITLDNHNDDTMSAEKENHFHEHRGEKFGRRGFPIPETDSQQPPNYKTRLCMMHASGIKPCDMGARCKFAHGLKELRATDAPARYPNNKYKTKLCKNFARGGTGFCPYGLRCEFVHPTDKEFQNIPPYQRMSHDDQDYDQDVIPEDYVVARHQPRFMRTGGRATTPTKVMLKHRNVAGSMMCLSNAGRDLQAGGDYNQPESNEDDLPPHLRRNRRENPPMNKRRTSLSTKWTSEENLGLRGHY

SMILES	EC50
CC[C@H](C)/C=C(C)/C=C/C1=CC2=C(Cl)C(=O)[C@@](C)(OC(C)=O)C(=O)C2=CO1	17.8 µM
CCN(CC)c1ccc(N=Cc2c(O)n(Cc3ccccc3)c(=O)[nH]c2=O)cc1	> 30 µM (inactive)
CCC(C)/C=C(C)/C=C/C1=CC2=C(Cl)C(=O)C(C)(OC(C)=O)C(=O)C2=CO1 (centres undefined)	> 30 µM (inactive)
Cc1cc(/C=C2/C(=O)NC(=O)N(Cc3ccco3)C2=O)c(C)n1-c1ccc(C(=O)O)cc1	> 30 µM (inactive)
